Experimental data as given in patent publication US4198504A, “[3-(Pyridinium)-7-(naphthyiridinyl carbonylamino)acetamido]cephalosporanic acid derivatives” (Bristol-Myers Company, priority 1978, dated 1980).
Values after ≈ are worked out from the molar mass of the structure shown.

Assays:
[1] = system: S. aureus; assay: In vitro MIC, serial two-fold agar dilution, primary evaluation Gp (S. aureus, 6 strains); type: cell-based; conditions: CBPC = 100%; geometric mean of MICs; Mueller-Hinton agar
Procedure: (§1) Minimun inhibitory concentrations (MIC) were determined by the serial two-fold agar dilution method using Steers' apparatus on Mueller-Hinton agar plate against 31 test organisms for the primary screening and also against 64 strains of Pseudomonas aeruginosa for the secondary evaluation. The results are shown in Table 1 in terms of relative activity with respect to the standard compound CBPC (carbenicillin) which was set at 100%. In each group the calculation was based on the geometric mean of the observed MICs.
*GP = S. aureus (6 strains);

[2] = system: E. coli (9), Klebsiella sp. (2), Pr. mirabilis (1), Sal. enteritidis (1); assay: In vitro MIC, serial two-fold agar dilution, primary evaluation Gn-I (E. coli, Klebsiella sp., Pr. mirabilis, Sal. enteritidis); type: cell-based; conditions: CBPC = 100%; geometric mean of MICs; Mueller-Hinton agar
Procedure: as §1
GnI = E. coli (9), Klebsiella sp. (2), Pr. mirabilis (1), Sal.

[3] = system: Ent. cloacae (3), Pr. vulgaris (1), Pr. morganii (1), S. marcescen (1); assay: In vitro MIC, serial two-fold agar dilution, primary evaluation Gn-II (Ent. cloacae, Pr. vulgaris, Pr. morganii, S. marcescens); type: cell-based; conditions: CBPC = 100%; geometric mean of MICs; Mueller-Hinton agar
Procedure: as §1
GnII = Ent. cloacae (3), Pr. vulgaris (1), Pr. morganii (1), S. marcescen

[4] = system: Ps. aeruginosa; assay: In vitro MIC, serial two-fold agar dilution, primary evaluation Ps (6 strains); type: cell-based; conditions: CBPC = 100%; geometric mean of MICs; Mueller-Hinton agar
Procedure: as §1
Ps. = Ps. aeruginosa (6).

[5] = system: Pseudomonas aeruginosa; assay: In vitro MIC, serial two-fold agar dilution, secondary evaluation against Pseudomonas aeruginosa strains; type: cell-based; conditions: CBPC = 100%; geometric mean of MICs; 61-64 strains
Procedure: as §1

[6] = system: Staphylococcus aureus Smith; assay: In vivo efficacy, experimental infection in mice, intramuscular treatment, Staphylococcus aureus Smith; set-up: species or system Staphylococcus aureus (infected mice); conditions: im, 120 h, I.M., 100×LD50 challenge i.p., 5 days, read-out: PD50 Staphylococcus aureus Smith
Procedure: (§2) The in vivo efficacy was evaluated by intramuscular treatment against three kinds of experimental infection in mice.
(§3) The in vivo tests were carried out using the following three pathogenic organisms:
Staphylococcus aureus Smith
(§4) Mice were challenged intraperitoneally with approximately a 100×LD50 dose of the pathogens in a 5% mucin suspension. The mice were treated with test compound by I.M. route immediately after the bacterial challenge.

[7] = system: Escherichia coli Juhl; assay: In vivo efficacy, experimental infection in mice, intramuscular treatment, Escherichia coli Juhl; set-up: species or system Escherichia coli (infected mice); conditions: im, 120 h, I.M., 100×LD50 challenge i.p., 5 days, read-out: PD50 Escherichia coli Juhl
Procedure: as §2, §3, §4

[8] = system: Pseudomonas aeruginosa A9843; assay: In vivo efficacy, experimental infection in mice, intramuscular treatment, Pseudomonas aeruginosa A9843; set-up: species or system Pseudomonas aeruginosa (infected mice); conditions: A9843, im, 120 h, I.M., 100×LD50 challenge i.p., 5 days, read-out: PD50 Pseudomonas aeruginosa A9843
Procedure: as §2, §3
Pseudomonas aeruginosa A9843
as §4

[9] = Antibiotic blood levels in mice following intramuscular administration (paper disc-agar diffusion, Escherichia coli NIHJ as assay organism); type: in vivo; conditions: mouse, im, I.M., 20 mg./kg.; for half-life: read-out: Blood level, Half-life; for Cmax: read-out: Blood level, Peak Concentration
Procedure: Antibiotic blood levels were determined in mice following intramuscular administration of the test compounds at 20 mg./kg. The blood samples were collected from the orbital sinuses into heparinized capillary tubes at 15, 30, 60 and 120 minutes after administration. The antibiotic concentration was determined by the paper disc-agar diffusion method using Escherichia coli NIHJ as the assay organism.

[10] = Solubility in water; type: physicochemical; conditions: lyophilized product, read-out: dissolved readily in water to give a solution
Procedure: This unfortunate characteristic renders them unsuitable for use by intravenous administration. Acceptable solubility for such use is at least 125 mgm./ml. so that 250 mgm. can be administered in 2 ml. of sterile solution. Suspensions cannot, of course, be administered intravenously. […] The latter would make possible a dosage of 500 mgm. in a 2 ml. vial.
To a mixture of nicotinic acid (492 mg., 4 m.moles) and NaHCO3 (336 mg., 4 m.moles) in 2 ml. of water were added sodium 7-[D-α-(4-hydroxy-1,5-naphthyridine-3-carboxamido)-α-phenylacetamido]cephalosporanate^(3), (600 mg., 1 m.mole) and KSCN (2.4 g., 25 m.moles) and the mixture was allowed to stand overnight at 50°-52° C. The reaction mixture was placed on the top of an HP-20 column (.phi. 10 mm., 90 ml.). The column was developed with 1 L each of water, 30% aqueous MeOH and 50% aqueous MeOH. The eluate was collected in 20-ml. fractions, monitoring with tlc (silica-gel plate, CH3 CN:H2 O=4:1, detected with I2). The desired product was found in the fractions eluted with 30% aqueous MeOH, which were combined and concentrated under reduced pressure. The concentrates showing a neutral pH were lyophilized to give 105 mg. (16%) of BB-S606, which dissolved readily in water to give a 25% (w/v) solution. It started to melt around 280° C. with gradual decomposition.

Row | Structure (SMILES) | In vitro relative activity, primary evaluation Gp (6) [1] [%] | In vitro relative activity, primary evaluation Gn-I (13) [2] [%] | In vitro relative activity, primary evaluation Gn-II (6) [3] [%] | In vitro relative activity, primary evaluation Ps (6) [4] [%] | In vitro relative activity, secondary, Pseudomonas aeruginosa (61-64) [5] [%] | ED50 [6] [mg/kg] | ED50 [7] [mg/kg] | ED50 [8] [mg/kg] | half-life [9] [min] | Cmax [9] [ng/mL] | solubility [10] [mg/mL]
1 | O=C(O)CSc1cc[n+](CC2=C(C(=O)[O-])N3C(=O)C(NC(=O)[C@H](NC(=O)c4cnc5cccnc5c4O)c4ccc(O)cc4)C3SC2)cc1 (stereo partly drawn) [BB-S599, 7-[D-α-(4-Hydroxy-1,5-naphthyridine-3-carboxamido)-α-(4-hydroxyphenyl)acetamido]-3-(4-carboxymethylthiopyridinium)-methyl-3-cephem-4-carboxylate] | 35 | 260 | 83 | 2180 | 2010 | 2.2 | 2.4 | 8.4 | 54 | 7800 | –
2 | O=C([O-])C1=C(C[n+]2cccc(C(=O)O)c2)CSC2C(NC(=O)[C@H](NC(=O)c3cnc4cccnc4c3O)c3ccc(O)c(Cl)c3)C(=O)N12 (stereo partly drawn) [BB-S600, 7-[D-α-(4-Hydroxy-1,5-naphthyridine-3-carboxamido)-α-(3-chloro-4-hydroxyphenyl)acetamido]-3-(3-carboxypyridinium)-methyl-3-cephem-4-carboxylate] | 70 | 107 | 30 | 2340 | 2500 | 2 | 2.2 | 6.2 | 70 | 6200 | –
3 | O=C(O)C=Cc1ccc[n+](CC2=C(C(=O)[O-])N3C(=O)C(NC(=O)[C@H](NC(=O)c4cnc5cccnc5c4O)c4ccc(O)c(Cl)c4)C3SC2)c1 (stereo partly drawn) [BB-S602, 7-[D-α-(4-Hydroxy-1,5-naphthyridine-3-carboxamido)-α-(3-chloro-4-hydroxyphenyl)acetamido]-3-(3-carboxyvinylpyridinium)-methyl-3-cephem-4-carboxylate] | 58 | 94 | 63 | 2080 | 1530 | 0.8 | 1.4 | 8.4 | 60 | 8000 | –
4 | O=C(O)C=Cc1ccc[n+](CC2=C(C(=O)[O-])N3C(=O)C(NC(=O)[C@H](NC(=O)c4cnc5cccnc5c4O)c4ccccc4)C3SC2)c1 (stereo partly drawn) [BB-S603, 7-[D-α-(4-Hydroxy-1,5-naphthyridine-3-carboxamide)-α-phenyl-acetamido]-3-(3-carboxyvinylpyridinium)methyl-3-cephem-4-carboxylate] | 73 | 80 | 38 | 1150 | 1270 | 1.15 | 2.2 | 18 | 44 | 9000 | –
5 | O=C(O)Cc1ccc[n+](CC2=C(C(=O)[O-])N3C(=O)C(NC(=O)[C@H](NC(=O)c4cnc5cccnc5c4O)c4ccc(O)c(Cl)c4)C3SC2)c1 (stereo partly drawn) [BB-S604, 7-[D-α-(4-Hydroxy-1,5-naphthyridine-3-carboxamido)-α-(3-chloro-4-hydroxyphenyl)acetamido]-3-(3-carboxymethylpyridinium)-methyl-3-cephem-4-carboxylate] | 50 | 94 | 45 | 1450 | 2030 | 2.5 | 2.4 | 6.2 | 56 | 10500 | –
6 | O=C([O-])C1=C(C[n+]2ccc(CCS(=O)(=O)O)cc2)CSC2C(NC(=O)[C@H](NC(=O)c3cnc4cccnc4c3O)c3ccc(O)c(Cl)c3)C(=O)N12 (stereo partly drawn) [BB-S605, 7-[D-α-(4-Hydroxy-1,5-naphthyridine-3-carboxamido)-α-(3-chloro-4-hydroxyphenyl)acetamido]-3-(4-sulfoethylpyridinium)-methyl-3-cephem-4-carboxylate] | 40 | 83 | 40 | 1310 | 1300 | 3.1 | 3.1 | 8.4 | 54 | 9400 | –
7 | O=C([O-])C1=C(C[n+]2cccc(C(=O)O)c2)CSC2C(NC(=O)[C@H](NC(=O)c3cnc4cccnc4c3O)c3ccccc3)C(=O)N12 (stereo partly drawn) [BB-S606, 7-[D-α-(4-Hydroxy-1,5-naphthyridine-3-carboxamido)-α-phenyl-acetamido]-3-(3-carboxypyridinium)methyl-3-cephem-4-carboxylate] | 45 | 16 | 11 | 656 | 624 | 4.2 | – | 25 | 55 | 11000 | 250 (≈ 390 mM)
8 | O=C([O-])C1=C(C[n+]2cccc(C(=O)O)c2)CSC2C(NC(=O)[C@H](NC(=O)c3cnc4cccnc4c3O)c3ccc(O)c(O)c3)C(=O)N12 (stereo partly shown) [BB-S608] | 13 | 53 | 14 | 975 | 1207 | 8.5 | 1.4 | 2.4 | 50 | 8500 | –
9 | O=C([O-])C1=C(C[n+]2cccc(S(=O)(=O)O)c2)CSC2C(NC(=O)[C@H](NC(=O)c3cnc4cccnc4c3O)c3ccc(O)c(O)c3)C(=O)N12 (stereo partly drawn) [BB-S609, 7-[D-α-(4-Hydroxy-1,5-naphthyridine-3-carboxamido)-α-(3,4-dihydroxyphenyl)acetamido]-3-(3-sulfopyridinium)methyl-3-cephem-4-carboxylate] | 18 | 53 | 11 | 1450 | 1375 | 17 | 1.8 | 1.2 | 51 | 7400 | –
10 | O=C(O)C=Cc1ccc[n+](CC2=C(C(=O)[O-])N3C(=O)C(NC(=O)[C@H](NC(=O)c4cnc5cccnc5c4O)c4ccc(O)c(O)c4)C3SC2)c1 (stereo partly shown) [BB-S610] | 16 | 57 | 14 | 656 | 491 | 17 | 1.8 | 2.8 | 60 | 6200 | –
